Assay results taken from patent publication EP1505089B1, “Cationic (alkyl)acrylamide derivative, polymer based on these derivates, and transfection system comprising said polymer” (OctoPlus Technologies B.V., priority 2003, dated 2005).

Assay: Degradation of the monomer followed with RP-HPLC
Type: physicochemical
Settings: 37 °C
Description: Degradation of the monomer was followed with RP-HPLC at 37 °C. The relative peak areas of the monomer and its degradation product HPMA as a function of time are depicted in figure 1(A) for pH 10, 1(B) for pH 7.4 and 1(C) for pH 5.0.

half-life of the monomer (pH 5.0, RP-HPLC): 380 h | half-life of the monomer (pH 7.4, RP-HPLC): 9.6 h | half-life of the monomer (pH 10, RP-HPLC): 1.1 h
Compound: C=C(C)C(=O)NCC(C)OC(=O)OCCN(C)C (stereo not drawn) [HPMA-DMAE]
